# Literature values as cited in US12397068B2, “Structural design of a cranial nerve degeneration contrast agent precursors” (INSTITUTE OF NUCLEAR ENERGY RESEARCH, ATOMIC ENERGY …, priority 2022, dated 2025).
# Tests used:
# [1] = in words only; background statement
# [2] = system: α-synuclein relative to Aβ and Tau proteins; conditions: in vitro; in words only; background statement
# α-synuclein fibrils = α-synuclein fibrils (Homo sapiens, UniProt P37840); conditions: in words only; background statement
SMILES,in vitro stability [1],specificity for α-synuclein relative to β-amyloid (Aβ) and Tau [2],affinity for α-synuclein (α-synuclein fibrils)
O=[N+]([O-])c1ccc2c(c1)Sc1cc(OC/C=C/[125I])ccc1N2 [SIL23],low in vitro stability,reasonable degree in vitro specificity,–
O=[N+]([O-])c1ccc2c(c1)Sc1cc(OCCF)ccc1N2 [SIL26],low in vitro stability,reasonable degree in vitro specificity,–
CN(C)c1ccc(/C=C/C=C/C2=[N+](C)C3=C(CCCC3)C2(C)C)cc1 [LDS 730],low in vitro stability,reasonable degree in vitro specificity,–
COc1ccc2c(c1)Sc1cc([N+](=O)[O-])ccc1N2 [SIL5],low in vitro stability,reasonable degree in vitro specificity,–
CC[n+]1ccc(/C=C/C=C/c2ccc(N(C)C)cc2)c2ccccc21.[O-][Cl+3]([O-])([O-])[O-] [LDS 798],low in vitro stability,reasonable degree in vitro specificity,moderate affinity
O=C1Nc2ccccc2C1=Cc1ccccc1,–,low specificity,–
